PubChem BioAssay AID1259408 (Genetic Toxicology Data Bank (GENE-TOX), 2018)
Activity calls are given as the source filed them. How the calls were made is not given here.

Test system: GENE-TOX genotoxicity assays, various organisms and cells
Test: GENE-TOX mutagenicity studies
Conditions: for call: Assay Type: In vivo carcinogenicity studies
[1] = Species/Cell Type: Mammalian polychromatic erythrocytes, Assay Type: Micronucleus test, chromosome aberrations, Assay Code: MNTT, Evaluation Type: Evaluation A (Pre-1980)
[2] = Species/Cell Type: Human lymphocytes, Assay Type: Sister-chromatid exchange (SCE) in vitro, Assay Code: SCL+, Evaluation Type: Evaluation B (Post-1980)
[3] = Species/Cell Type: Human, Assay Type: Sister-chromatid exchange (SCE) in vitro, Assay Code: SC1+, Evaluation Type: Evaluation B (Post-1980)
[4] = Species/Cell Type: Mammalian polychromatic erythrocytes, Assay Type: Micronucleus test, chromosome aberrations, Assay Code: MNTT, Evaluation Type: Evaluation B (Post-1980)
[5] = Species/Cell Type: Saccharomyces cerevisiae, Assay Type: Mitotic recombination or gene conversion, Assay Code: YEC-, Evaluation Type: Evaluation A (Pre-1980)
[6] = Species/Cell Type: Salmonella typhimurium (one or more of the five standard strains: TA98, TA100, TA1535, TA1537, and TA1538), Assay Type: Histidine reverse gene mutation, Ames assay, Assay Code: SAL+*, Activation: With metabolic activation, Evaluation Type: Evaluation A (Pre-1980)
[7] = Species/Cell Type: Saccharomyces cerevisiae, Assay Type: Reverse gene mutation, Assay Code: YERT, Evaluation Type: Evaluation A (Pre-1980)
[8] = Species/Cell Type: Salmonella typhimurium (one or more of the five standard strains: TA98, TA100, TA1535, TA1537, and TA1538), Assay Type: Histidine reverse gene mutation, Ames assay, Assay Code: SAL+, Evaluation Type: Evaluation A (Pre-1980)
[9] = Species/Cell Type: Nonhuman, Assay Code: CCG+L, Evaluation Type: Evaluation A (Pre-1980)
[10] = Species/Cell Type: Nonhuman, Assay Code: CCG+, Evaluation Type: Evaluation A (Pre-1980)
[11] = Species/Cell Type: Salmonella typhimurium (one or more of the five standard strains: TA98, TA100, TA1535, TA1537, and TA1538), Assay Type: Histidine reverse gene mutation, Ames assay, Assay Code: SALT, Evaluation Type: Evaluation A (Pre-1980)
[12] = Species/Cell Type: Nonhuman, Assay Type: Sister-chromatid exchange (SCE) in vitro, Assay Code: SC2+D, Dose Response: With dose response, Evaluation Type: Evaluation B (Post-1980)
[13] = Species/Cell Type: Escherichia coli polA (W3119 vs P3478), Assay Type: Rec-assay, DNA effects (bacterial DNA repair), Assay Code: RE1T, Evaluation Type: Evaluation A (Pre-1980)

In the case of `O=[N+]([O-])c1ccc(Oc2c(Cl)cc(Cl)cc2Cl)cc1`, the mutagenic call [1] is reported as “no conclusion”.
In the case of `CC(C)C(Br)Br`, the mutagenic call (Species/Cell Type: Escherichia coli polA (W3119 vs P3478), Assay Type: Rec-assay, DNA effects (bacterial DNA repair), Assay Code: RE1+, Evaluation Type: Evaluation A (Pre-1980)) is reported as “active; positive”.
With `Oc1cccc2cccnc12` the mutagenic call [2] was “active; positive”, the mutagenic call [3] was “active; positive” and the mutagenic call [4] was “no conclusion”. The mutagenic call (Species/Cell Type: Neurospora crassa, Assay Type: Aneuploidy, chromosome aberrations, Assay Code: NEN-, Evaluation Type: Evaluation A (Pre-1980)) was “inactive; negative”, the call (Species/Cell Type: Nonhuman, Assay Code: CCG-, Evaluation Type: Evaluation A (Pre-1980)) was “inactive; negative” and the mutagenic call [5] was “inactive; negative”. The mutagenic call [6] was “active; positive” and the mutagenic call (Species/Cell Type: Vicia faba, Assay Type: Chromosome aberrations, Assay Code: VIC+, Evaluation Type: Evaluation A (Pre-1980)) was “active; positive”.
For `CN(C)Cc1cc(Br)ccc1OCC(=O)NN`, the mutagenic call [7] was “no conclusion”.
With `O=c1c(O)c(-c2ccc(O)c(O)c2)oc2cc(O)cc(O)c12` the mutagenic call (Species/Cell Type: Chinese hamster ovary (CHO) cells, Assay Type: Forward gene mutation at the HPRT locus, Assay Code: CHOT, Evaluation Type: Evaluation B (Post-1980)) was “no conclusion”, the mutagenic call (Species/Cell Type: Human lymphocytes, Assay Type: Sister-chromatid exchange (SCE) in vitro, Assay Code: SCL+D, Dose Response: With dose response, Evaluation Type: Evaluation B (Post-1980)) was “active; positive” and the mutagenic call (Species/Cell Type: Human, Assay Type: Sister-chromatid exchange (SCE) in vitro, Assay Code: SC1+D, Dose Response: With dose response, Evaluation Type: Evaluation B (Post-1980)) was “active; positive”. The mutagenic call (Species/Cell Type: Mammalian polychromatic erythrocytes, Assay Type: Micronucleus test, chromosome aberrations, Assay Code: MNT+, Evaluation Type: Evaluation B (Post-1980)) was “active; positive”, the mutagenic call (Species/Cell Type: Nonhuman, Assay Type: Sister-chromatid exchange (SCE) in vitro, Assay Code: SC2+/-*, Activation: With metabolic activation, Evaluation Type: Evaluation B (Post-1980)) was “inactive; positive without activation, negative with activation” and the mutagenic call (Species/Cell Type: Nonhuman, Assay Type: Sister-chromatid exchange (SCE) in vivo, Assay Code: SC3-, Evaluation Type: Evaluation B (Post-1980)) was “inactive; negative”. The mutagenic call (Species/Cell Type: Saccharomyces cerevisiae, Assay Type: Mitotic recombination or gene conversion, Assay Code: YEC+, Evaluation Type: Evaluation A (Pre-1980)) was “active; positive” and the mutagenic call [8] was “active; positive”.
With `COc1cc2c(c3oc(=O)c4c(c13)CCOC4=O)[C@@H]1C=CO[C@@H]1O2` the mutagenic call (Species/Cell Type: Bacillus subtilis (H17 vs M45), Assay Type: Rec-assay, spot test, DNA effects (bacterial DNA repair), Assay Code: REW+, Evaluation Type: Evaluation A (Pre-1980)) was “active; positive”, the mutagenic call (Species/Cell Type: Human diploid fibroblasts, Assay Type: Unscheduled DNA synthesis (UDS) in vitro, DNA effects, Assay Code: UDH+, Evaluation Type: Evaluation A (Pre-1980)) was “active; positive” and the mutagenic call (Species/Cell Type: Neurospora crassa, Assay Type: Forward gene mutation, Assay Code: NEF+, Evaluation Type: Evaluation A (Pre-1980)) was “active; positive”. For the same compound, the call [9] was “active; positive”, the mutagenic call (Species/Cell Type: Nonhuman, Assay Type: Sister-chromatid exchange (SCE) in vitro, Assay Code: SC2+D*, Activation: With metabolic activation, Dose Response: With dose response, Evaluation Type: Evaluation B (Post-1980)) was “active; positive” and the mutagenic call (Species/Cell Type: Rat primary hepatocytes, Assay Type: Unscheduled DNA synthesis (UDS) in vitro, DNA effects, Assay Code: UDP+, Evaluation Type: Evaluation A (Pre-1980)) was “active; positive”. For the same compound, the mutagenic call [5] was “inactive; negative” and the mutagenic call [6] was “active; positive”.
In the case of `O=[N+]([O-])c1ccc2c3c(cccc13)CC2`, the call [10] is reported as “active; positive” and the mutagenic call [8] is reported as “active; positive”.
`CC1C[C@@H]2CCC[C@H]2[C@@H]2CCC3CCCC[C@@H]3[C@@H]12` (some centres not stated) was tested, and the mutagenic call (Species/Cell Type: Syrian hamster embryo (SHE) cells, Assay Type: Cell transformation, clonal assay, Assay Code: CTC+, Evaluation Type: Evaluation A (Pre-1980)) was “active; positive”.
For `Clc1cccc(C2CO2)c1` (configuration not stated), the mutagenic call (Species/Cell Type: Escherichia coli WP2 UVRA, Assay Type: Tryptophan reverse gene mutation, Assay Code: WPU+D, Dose Response: With dose response, Evaluation Type: Evaluation A (Pre-1980)) was “active; positive” and the mutagenic call [11] was “no conclusion”.
With `O=c1[nH]cc[nH]1` the mutagenic call (Species/Cell Type: Drosophila melanogaster, Assay Type: Sex-linked recessive lethal gene mutation, Assay Code: SRLT, Evaluation Type: Evaluation A (Pre-1980)) was “no conclusion”.
`COc1cc(/C=N/NC(=O)COc2ccc(Br)cc2CN(C)C)ccc1O` was tested, and the mutagenic call [7] was “no conclusion”.
`Cc1cc2c3c(ccc2c2ccccc12)C(=O)CC3` was tested, and the mutagenic call [11] was “no conclusion”.
With `Cc1ccc2cc3c(ccc4ccccc43)cc2c1` the mutagenic call [12] was “active; positive” and the mutagenic call [6] was “active; positive”.
For `Oc1ccccc1`, the mutagenic call [2] was “active; positive”, the mutagenic call [3] was “active; positive” and the mutagenic call [4] was “no conclusion”. The mutagenic call (Species/Cell Type: Neurospora crassa, Assay Type: Reverse gene mutation, Assay Code: NER-, Evaluation Type: Evaluation A (Pre-1980)) was “inactive; negative”.
For `CCCN(CCCC(=O)O)N=O`, the mutagenic call [8] was “active; positive”.
In the case of `O=NN1CN2CN(C1)CN(N=O)C2`, the mutagenic call [1] is reported as “no conclusion”, the mutagenic call (Species/Cell Type: Mouse embryo (AKR/ME) cells, Assay Type: Cell transformation, Assay Code: CTK-, Evaluation Type: Evaluation A (Pre-1980)) is reported as “inactive; negative” and the mutagenic call [12] is reported as “active; positive”.
In the case of `Clc1cc2c(cc1Cl)Oc1cc(Cl)c(Cl)cc1O2`, the mutagenic call [4] is reported as “no conclusion”, the call [10] is reported as “active; positive” and the mutagenic call (Species/Cell Type: Nonhuman, Assay Type: Sister-chromatid exchange (SCE) in vivo, Assay Code: SC3T, Evaluation Type: Evaluation B (Post-1980)) is reported as “no conclusion”. The mutagenic call (Species/Cell Type: Rodents, Sex: Male, Assay Type: Dominant lethal test, Assay Code: DLT-, Evaluation Type: Evaluation A (Pre-1980)) was “inactive; negative”.
For `Cc1cc(N(C)C)ccc1N=Nc1ccccc1`, the mutagenic call (Species/Cell Type: Escherichia coli polA (W3110 vs P3478), Assay Type: Rec-assay, DNA effects (bacterial DNA repair), Assay Code: RE2-, Evaluation Type: Evaluation A (Pre-1980)) was “inactive; negative”, the mutagenic call [13] was “no conclusion” and the mutagenic call (Species/Cell Type: Fischer rat embryo (RLV/1706) cells, Assay Type: Cell transformation, viral enhanced, Assay Code: CTR+, Evaluation Type: Evaluation A (Pre-1980)) was “active; positive”. For the same compound, the mutagenic call (Species/Cell Type: Human diploid fibroblasts, Assay Type: Unscheduled DNA synthesis (UDS) in vitro, DNA effects, Assay Code: UDH-, Evaluation Type: Evaluation A (Pre-1980)) was “inactive; negative”, the mutagenic call (Species/Cell Type: Mouse (BALB/c-3T3) cells, Assay Type: Cell transformation, Assay Code: CTB-, Evaluation Type: Evaluation A (Pre-1980)) was “inactive; negative” and the call [9] was “active; positive”. For the same compound, the mutagenic call (Species/Cell Type: Nonhuman, Assay Type: Sister-chromatid exchange (SCE) in vitro, Assay Code: SC2+D, Dose Response: With dose response, Evaluation Type: Evaluation A (Pre-1980)) was “active; positive”, the mutagenic call (Species/Cell Type: Rat primary hepatocytes, Assay Type: Unscheduled DNA synthesis (UDS) in vitro, DNA effects, Assay Code: UDPT, Evaluation Type: Evaluation A (Pre-1980)) was “no conclusion” and the mutagenic call (Species/Cell Type: Saccharomyces cerevisiae, Assay Type: Mitotic recombination or gene conversion, Assay Code: YEH+/-*, Activation: With metabolic activation, Evaluation Type: Evaluation A (Pre-1980)) was “inactive; positive without activation, negative with activation”. For the same compound, the mutagenic call [6] was “active; positive”, the mutagenic call (Species/Cell Type: Salmonella typhimurium, Assay Type: Forward and reverse gene mutation, host-mediated assay, Assay Code: HMA+, Evaluation Type: Evaluation A (Pre-1980)) was “active; positive” and the mutagenic call (Species/Cell Type: Syrian hamster embryo (SHE) cells, Assay Type: Cell transformation, clonal assay, Assay Code: CTC-, Evaluation Type: Evaluation A (Pre-1980)) was “inactive; negative”.
For `O=[N+]([O-])c1ccc(-c2csc(Nc3ccccc3)n2)o1`, the mutagenic call (Species/Cell Type: Escherichia coli WP2, Assay Type: Tryptophan reverse gene mutation, Assay Code: WP2+, Evaluation Type: Evaluation A (Pre-1980)) was “active; positive” and the mutagenic call (Species/Cell Type: Escherichia coli WP2 UVRA, Assay Type: Tryptophan reverse gene mutation, Assay Code: WPU-, Evaluation Type: Evaluation A (Pre-1980)) was “inactive; negative”.
`CCOC(=O)CNC(=O)C=[N+]=[N-]` was tested, and the mutagenic call [8] was “active; positive”.
With `CCc1ccc(O)c(O)c1` the mutagenic call (Species/Cell Type: Allium cepa, Assay Type: Chromosome aberrations, Assay Code: ALC-, Evaluation Type: Evaluation A (Pre-1980)) was “inactive; negative”.
In the case of `CCCCN(CCCCO)N=O`, the mutagenic call [13] is reported as “no conclusion”, the mutagenic call (Species/Cell Type: Nonhuman, Assay Type: Chromosome aberrations in vitro, Assay Code: CY&-, Evaluation Type: Evaluation A (Pre-1980)) is reported as “inactive; negative” and the call [10] is reported as “active; positive”. For the same compound, the mutagenic call [12] was “active; positive”, the mutagenic call (Species/Cell Type: Nonhuman, Assay Type: Sister-chromatid exchange (SCE) in vitro, Assay Code: SC2T, Evaluation Type: Evaluation A (Pre-1980)) was “no conclusion” and the mutagenic call [8] was “active; positive”.
With `Cc1ccc2c(c1[N+](=O)[O-])C(=O)c1cccc([N+](=O)[O-])c1C2=O` the mutagenic call [8] was “active; positive”.
